Like-named read-outs stand apart in the source and are kept apart here.
Assays:
[1] = molecular target: T1, Muscarine M4 (GPCR-A-MA-ACH M4) (Homo sapiens, UniProt P08173); test: Muscarine M4 cell-based functional assay (CHO cells, Ca2+ - Aequorin luminescence)
T1 construct: expressed in transfected cells; host or cells: CHO cells
T1 sequence (P08173 1-479): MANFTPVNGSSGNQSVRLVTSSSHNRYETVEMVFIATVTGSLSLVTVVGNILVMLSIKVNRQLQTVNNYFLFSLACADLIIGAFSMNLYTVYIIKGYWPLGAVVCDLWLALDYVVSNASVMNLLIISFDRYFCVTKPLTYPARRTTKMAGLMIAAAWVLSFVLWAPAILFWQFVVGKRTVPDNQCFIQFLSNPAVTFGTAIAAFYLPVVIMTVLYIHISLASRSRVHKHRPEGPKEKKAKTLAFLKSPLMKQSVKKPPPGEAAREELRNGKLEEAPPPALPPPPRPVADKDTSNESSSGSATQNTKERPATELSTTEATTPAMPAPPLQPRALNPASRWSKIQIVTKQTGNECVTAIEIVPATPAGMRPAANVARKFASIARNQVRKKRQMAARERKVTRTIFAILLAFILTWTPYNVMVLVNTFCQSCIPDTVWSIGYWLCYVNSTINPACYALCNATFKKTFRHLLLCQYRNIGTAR
Procedure: Compounds were dissolved in DMSO (10 mM) and diluted in assay buffer to test concentration. Prime testing was at 1 μM; for actives in antagonist mode (PI, percent inhibition with respect to reference agonist and blank>30%) as well as actives in agonist mode (PS, percent stimulation with respect to reference agonist and blank>30%) testing was continued at lower concentrations in 10-fold dilutions: 0.1 μM, 0.01 μM, etc.
Cells were incubated with compound and the response indicated was measured.
The results are expressed as a percent of reference agonist values and blanks in the presence of the test compound, percent stimulation for agonist mode; for the antagonist mode (test compound in the presence of reference agonist) as percent inhibition. The EC50 values (concentration causing a half-maximal stimulation of control values), IC50 values (concentration causing a half-maximal inhibition of control values) were determined by non-linear regression analysis of the concentration-response curves using Hill equation curve fitting.

[2] = molecular target: T2, Muscarine M3 (GPCR-A-MA-ACH M3) (Homo sapiens, UniProt P20309); test: Muscarine M3 receptor binding
T2 construct: expressed in transfected cells; host or cells: CHO cells
T2 sequence (P20309 whole entry): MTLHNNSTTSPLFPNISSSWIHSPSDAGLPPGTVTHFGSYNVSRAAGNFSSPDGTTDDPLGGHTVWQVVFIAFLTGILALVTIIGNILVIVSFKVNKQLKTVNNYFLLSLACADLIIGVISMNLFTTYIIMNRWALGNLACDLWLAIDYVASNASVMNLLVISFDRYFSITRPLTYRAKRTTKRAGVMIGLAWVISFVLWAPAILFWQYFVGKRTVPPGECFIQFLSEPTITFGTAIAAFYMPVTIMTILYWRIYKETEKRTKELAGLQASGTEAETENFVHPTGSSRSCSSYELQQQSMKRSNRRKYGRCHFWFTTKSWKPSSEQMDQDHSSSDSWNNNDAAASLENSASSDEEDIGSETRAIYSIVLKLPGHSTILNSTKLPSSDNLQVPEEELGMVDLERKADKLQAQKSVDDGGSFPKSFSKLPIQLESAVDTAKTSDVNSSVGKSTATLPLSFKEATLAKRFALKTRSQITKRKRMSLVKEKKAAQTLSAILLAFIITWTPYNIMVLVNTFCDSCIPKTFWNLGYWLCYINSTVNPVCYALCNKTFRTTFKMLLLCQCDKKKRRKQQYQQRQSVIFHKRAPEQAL

[3] = molecular target: T1, Muscarine M4 (GPCR-A-MA-ACH M4); test: Muscarine M4 receptor binding, 3H-Oxotremorine
Procedure: (§1) Compounds were dissolved in DMSO (10 mM) and diluted in assay buffer to test concentration. Prime testing was at 10 μM; for actives (PI, percent inhibition with respect to total and non-specific binding >40%) testing was continued at lower concentrations in 10-fold dilutions: 1 μM, 0.1 μM, etc.
(§2) Following incubation of compound with the receptor preparation (from ‘Tissue’) and the Ligand at the time and temperature indicated, the receptor preparations were rapidly filtered under vacuum through glass fibre filters; the filters were washed extensively with an ice-cold buffer using a harvester. Bound radioactivity was measured by scintillation counting using a liquid scintillation cocktail.
(§3) Results were expressed as percentage of total Ligand binding and that of Non Specific Binding, per concentration of Compound tested (duplicates); from the concentration—displacement curves IC50 values were determined by non-linear regression analysis using Hill equation curve fitting. The inhibition constants (Ki) were calculated from the Cheng-Prushoff equation Ki=IC50/(1+L/Kd), where L is the concentration of radioligand in the assay, and Kd the affinity of the radioligand for the receptor. Results were expressed as pKi's, means±SD of at least 2 separate experiments; i.e. outliers (outside+/−1 std of mean) and discrepancies were excluded.

[4] = molecular target: T1, Muscarine M4 (GPCR-A-MA-ACH M4); test: Muscarine M4 receptor binding, 3H-4DAMP; conditions: human M4, CHO cells, ligand 0.2 nM, 60 min/22° C.; for Ki: read-out: RB Musc. M4 3H-DAMP pKi (converted)
Procedure: as §1, §2, §3

[5] = molecular target: T3, Muscarine M2 (GPCR-A-MA-ACH M2) (Cavia porcellus, UniProt H0VRN8); test: Muscarine M2 functional assay, isolated organ (left atrium, electrically paced), agonist and antagonist mode; design: species or system Guinea Pig; conditions: for EC50: read-out: Cell funct. Musc. M2 Agonism pEC50 (converted)
T3 construct: from tissue; host or cells: guinea pig left atrium (electrically paced)
T3 sequence (H0VRN8 1-466): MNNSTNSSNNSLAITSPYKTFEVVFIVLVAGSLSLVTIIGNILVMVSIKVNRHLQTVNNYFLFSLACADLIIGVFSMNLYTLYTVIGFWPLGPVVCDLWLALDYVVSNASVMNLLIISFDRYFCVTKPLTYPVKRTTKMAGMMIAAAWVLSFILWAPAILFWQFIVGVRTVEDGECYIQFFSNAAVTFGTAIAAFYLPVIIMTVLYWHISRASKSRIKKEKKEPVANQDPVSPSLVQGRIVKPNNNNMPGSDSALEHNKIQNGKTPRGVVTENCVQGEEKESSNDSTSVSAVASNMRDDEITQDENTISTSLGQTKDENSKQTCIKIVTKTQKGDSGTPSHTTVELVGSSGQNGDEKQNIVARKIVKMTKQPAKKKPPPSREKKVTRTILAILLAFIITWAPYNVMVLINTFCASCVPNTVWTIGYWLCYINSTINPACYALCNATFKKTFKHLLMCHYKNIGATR

[6] = molecular target: T4, Muscarine M1 (GPCR-A-MA-ACH M1) (Homo sapiens, UniProt P11229); test: Muscarine M1 receptor binding, 3H-Pirenzepine; conditions: human M1, CHO cells, ligand 2 nM, 60 min/22° C.; for Ki: read-out: RB Musc. M1 3H-Pirenzepine pKi (converted)
T4 construct: expressed in transfected cells; host or cells: CHO cells
T4 sequence (P11229 1-460): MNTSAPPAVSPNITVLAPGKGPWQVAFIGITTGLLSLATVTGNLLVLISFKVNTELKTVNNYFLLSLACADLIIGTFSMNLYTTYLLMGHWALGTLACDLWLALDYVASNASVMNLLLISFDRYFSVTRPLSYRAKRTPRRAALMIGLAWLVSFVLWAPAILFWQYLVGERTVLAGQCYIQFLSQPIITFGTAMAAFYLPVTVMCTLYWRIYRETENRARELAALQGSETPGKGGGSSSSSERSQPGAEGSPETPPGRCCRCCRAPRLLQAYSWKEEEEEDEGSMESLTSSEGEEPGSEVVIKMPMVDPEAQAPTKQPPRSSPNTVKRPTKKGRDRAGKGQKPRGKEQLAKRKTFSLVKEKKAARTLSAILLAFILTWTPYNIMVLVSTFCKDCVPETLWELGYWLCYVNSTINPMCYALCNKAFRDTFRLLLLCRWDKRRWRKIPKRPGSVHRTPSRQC
Procedure: as §1, §2, §3

[7] = molecular target: T5, Muscarine M2 (GPCR-A-MA-ACH M2) (Homo sapiens, UniProt P08172); test: Muscarine M2 receptor binding
T5 construct: expressed in transfected cells; host or cells: CHO cells
T5 sequence (P08172 1-466): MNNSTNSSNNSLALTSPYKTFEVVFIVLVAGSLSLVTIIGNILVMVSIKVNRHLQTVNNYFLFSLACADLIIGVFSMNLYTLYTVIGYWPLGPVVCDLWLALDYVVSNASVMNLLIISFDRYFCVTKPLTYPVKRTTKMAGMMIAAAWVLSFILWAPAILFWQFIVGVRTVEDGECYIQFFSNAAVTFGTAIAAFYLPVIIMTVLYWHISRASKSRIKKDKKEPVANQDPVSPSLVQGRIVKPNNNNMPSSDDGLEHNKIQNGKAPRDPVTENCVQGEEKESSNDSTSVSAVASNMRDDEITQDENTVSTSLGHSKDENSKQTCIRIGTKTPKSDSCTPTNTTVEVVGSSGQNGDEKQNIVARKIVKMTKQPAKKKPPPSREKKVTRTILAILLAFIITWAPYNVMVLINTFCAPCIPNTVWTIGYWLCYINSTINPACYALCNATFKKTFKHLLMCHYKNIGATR

[8] = molecular target: T6, Muscarine M3 (GPCR-A-MA-ACH M3) (Cavia porcellus, UniProt H0W1Z3); test: Muscarine M3 functional assay, isolated organ (ileum), agonist and antagonist mode; design: species or system Guinea Pig; conditions: for EC50: read-out: Cell funct. Musc. M3 Agonism pEC50 (converted)
T6 construct: from tissue; host or cells: guinea pig ileum
T6 sequence (H0W1Z3 1-590): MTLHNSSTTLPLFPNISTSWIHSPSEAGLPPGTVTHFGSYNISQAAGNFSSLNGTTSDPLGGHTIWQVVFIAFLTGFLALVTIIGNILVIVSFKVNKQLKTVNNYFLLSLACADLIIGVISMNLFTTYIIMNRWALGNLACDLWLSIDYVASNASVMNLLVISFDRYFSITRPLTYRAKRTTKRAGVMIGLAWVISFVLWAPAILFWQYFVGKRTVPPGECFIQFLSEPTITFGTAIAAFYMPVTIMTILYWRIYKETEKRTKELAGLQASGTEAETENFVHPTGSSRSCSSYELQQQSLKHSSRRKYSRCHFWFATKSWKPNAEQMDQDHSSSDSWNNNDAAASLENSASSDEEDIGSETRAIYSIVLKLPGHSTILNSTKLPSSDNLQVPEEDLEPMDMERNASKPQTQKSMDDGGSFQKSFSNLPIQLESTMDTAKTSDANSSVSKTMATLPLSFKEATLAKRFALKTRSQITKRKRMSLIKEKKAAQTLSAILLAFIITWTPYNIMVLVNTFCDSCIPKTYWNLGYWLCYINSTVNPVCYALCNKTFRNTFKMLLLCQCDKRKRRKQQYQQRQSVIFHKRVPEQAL

[9] = molecular target: T4, Muscarine M1 (GPCR-A-MA-ACH M1); test: Muscarine M1 cell-based functional assay (CHO cells, Ca2+ - FLIPR Fluorimetry); conditions: for EC50: read-out: Cell funct. Musc. M1 Agonism pEC50 (converted)
[10] = human M4, CHO cells, agonist mode, reference agonist oxotremorine, read-out: Cell funct. Musc. M4 Agonism pEC50 (converted)
[11] = human M3, CHO cells, receptor binding
[12] = human M4, CHO cells, receptor binding, ligand 6 nM, 30 min/25° C., read-out: RB Musc. M4 3H-Oxotremorine pKi (converted)
[13] = read-out: Cell funct. Musc. M2 Antagonism pA2 (converted)
[14] = human M2, CHO cells, receptor binding
[15] = human M1, CHO cells, agonist mode, reference agonist acetylcholine

Compound	EC50 [1, 10] [nM]	Ki [2, 11] [nM]	Ki [3, 12] [nM]	Ki [4] [nM]	EC50 [5] [nM]	Kb [5, 13] [nM]	Ki [6] [nM]	Ki [7, 14] [nM]	Kb [8] [nM]	EC50 [8] [nM]	EC50 [9, 15] [nM]	Ki [2] [nM]	Ki [3] [nM]	Kb [5] [nM]	Ki [7] [nM]	EC50 [9] [nM]	other results
CN1CCC=C(c2n[nH]cc2SCCCCCSc2c[nH]nc2C2=CCCN(C)C2)C1 [Compound 22C]	> 10000	31.6	158	63.1	> 1000	> 1000	251	398	> 1000	> 1000	> 1000						
CC(C)CCSc1c[nH]nc1C1=CCCN(C)C1 [Compound 22S, 3-[4-(3-methyl-butylsulfanyl)-1H-pyrazol-3-yl]-1,2,5,6-tetrahydro-1-methylpyridine]	> 10000	50.1	158	50.1	> 1000	> 1000	126	2000	100	> 1000	398						
CCCCCCOc1c[nH]nc1C1=CCCN(C)C1 [Compound 33B, 3-(4-Hexyloxy-1H-pyrazol-3-yl]-1,2,5,6-tetrahydro-1-methylpyridine]	501	398	200	316	> 1000	> 1000	1000	1260	> 1000	> 1000	100						
CCCSc1c[nH]nc1C1CN2CCC1CC2 (stereo not shown) [Compound 49E, 3-(4-Propylsulfanyl-1H-pyrazol-3-yl)-1-azabicyclo[2.2.2]octane]				39.8	794		316		> 1000	> 1000		126	79.4	> 1000	501	10	EC50 [1]: 79.4 nM
c1ccc(CCSc2c[nH]nc2C2CN3CCC2CC3)cc1 (stereo not shown) [Compound 49G, 3-(4-Phenethylsulfanyl-1H-pyrazol-3-yl)-1-azabicyclo[2.2.2]octane]																	Cell funct. Musc. M4 Agonism pEC50 [1]: 8.0; RB Musc M3 4-DAMP [2]: 6.5; RB Musc. M4 3H-Oxotremorine pKi [3]: 7.6; RB Musc. M4 3H-DAMP pKi [4]: 7.0; Cell funct. Musc. M2 Agonism pEC50 [5]: <6; Cell funct. Musc. M2 Antagonism pA2 [5]: <6; RB Musc. M1 3H-Pirenzepine pKi [6]: 6.2; RB Musc M2 methoctramine [7]: 6.1; Cell funct. Musc. M3 Agonism pEC50 [8]: <6; Cell funct. Musc. M3 Antagonism pA2 [8]: <6; Cell funct. Musc. M1 Agonism pEC50 [9]: 7.3
CCCCOc1c[nH]nc1C1CN2CCC1CC2 (stereo not shown) [Compound 52A, 3-(4-Butoxy-1H-pyrazol-3-yl)-1-azabicyclo[2.2.2]octane]				251	> 1000		794		> 1000	> 1000		794	126	> 1000	3980	20	
CCCOc1c[nH]nc1C1CN2CCC1CC2 (stereo not shown) [Compound 52B, 3-(4-Propoxy-1H-pyrazol-3-yl)-1-azabicyclo[2.2.2]octane]				126	> 1000		631		> 1000	> 1000		316	63.1	25.1	1260	7.94	EC50 [1]: 100 nM
CCCCCOc1c[nH]nc1C1CN2CCC1CC2 (stereo not shown) [Compound 52C, 3-(4-Pentyloxy-1H-pyrazol-3-yl)-1-azabicyclo[2.2.2]octane]				251	> 1000		1000		> 1000	> 1000		631	63.1	> 1000	2510	12.6	
CCCCCSc1nc[nH]c1C1=CCCN(C)C1 [Compound 76A, 3-(5-Pentylsulfanyl-3H-imidazol-4-yl)-1,2,5,6-tetrahydro-1-methylpyridine]	7940	794	631	316	> 1000	> 1000	2510	5010	> 1000	> 1000	126						

From US8735388B2, “Heterocyclic compounds with affinity to muscarinic receptors” (Abbvie B. V. A., priority 2007, dated 2014)
